Data set [1] deals with L1210. In words: Inhibition of DNA synthesis in mouse L1210 cells assessed as inhibition of [3H]-thymidine incorporation measured per 10^6 cells at 5 uM pretreated for 1 hr followed by radiotracer addition measured after 1 hr by scintillation spectrometric analysis relative to control. It is filed as functional.
The test system of data set [2] is L1210. Description: Inhibition of DNA synthesis in mouse L1210 cells assessed as inhibition of [3H]-thymidine incorporation measured per 10^6 cells at 3 uM pretreated for 1 hr followed by radiotracer addition measured after 1 hr by scintillation spectrometric analysis relative to control. It is filed as functional. On the technique in general: Incorporation of labelled thymidine or its analogues reports DNA synthesis.

Data set [3] concerns L1210. In words: Inhibition of RNA synthesis in mouse L1210 cells assessed as inhibition of [14C]-uridine incorporation measured per 10^6 cells […] pretreated for 1 hr followed by radiotracer addition measured after 1 hr by scintillation spectrometric analysis relative to control. It is filed as functional.
The test system of data set [4] is L1210. In words: Ratio of inhibition of [3H]-thymidine incorporation into DNA in mouse L1210 cells to cellular uptake in mouse L1210 cells.
In data set [5] the test system is L1210. In words: Inhibition of RNA synthesis in mouse L1210 cells assessed as inhibition of [14C]-uridine incorporation measured per 10^6 cells at 3 uM pretreated for 1 hr followed by radiotracer addition measured after 1 hr by scintillation spectrometric analysis relative to control. It is filed as functional.
Data set [6] relates to L1210. In words: Inhibition of RNA synthesis in mouse L1210 cells assessed as inhibition of [14C]-uridine incorporation measured per 10^6 cells at 5 uM pretreated for 1 hr followed by radiotracer addition measured after 1 hr by scintillation spectrometric analysis relative to control. It counts as functional.
Data set [7] relates to L1210. Description: Ratio of inhibition of [14C]-uridine incorporation into RNA in mouse L1210 cells to cellular uptake in mouse L1210 cells.
Data set [8] has as its system L1210. Description: Cellular uptake in mouse L1210 cells assessed per 10^6 cells at 3 uM up to 120 mins. It is filed as ADME, cell-based. To be noted: l1210, 2 h.
The test system of data set [9] is L1210. Description: Inhibition of DNA synthesis in mouse L1210 cells assessed as inhibition of [3H]-thymidine incorporation measured per 10^6 cells […] pretreated for 1 hr followed by radiotracer addition measured after 1 hr by scintillation spectrometric analysis relative to control. It is filed as functional.

From ChEMBL document CHEMBL3272341, “Cellular pharmocodynamics of several anthrocycline antibiotics” (J Med Chem, 1976) come the findings set out here.

As to `COc1cccc2c1C(=O)c1c(O)c3c(c(O)c1C2=O)C[C@@](O)([C@@H](O)CO)C[C@@H]3O[C@H]1C[C@H](N)[C@H](O)[C@H](C)O1`, the inhibition (in general, the relative decrease from the control value, in per cent) at 5 µM in data set [1] was found to be 32%; in [6], 22.4%. In addition, the values for the inhibition at 3 µM in data set [2] and in data set [5] were 25% and 17.9%, respectively. Further, the inhibition at 1 µM in data set [3] worked out at 10.1%; in data set [9], 23.7%. Moreover, the values for the Ratio in [4] and in [7] were 200 and 137, respectively. The Drug uptake in data set [8] was 0.16 nmol.

Take `COc1cccc2c1C(=O)c1c(O)c3c(c(O)c1C2=O)C[C@@](O)(C(C)O)C[C@@H]3O[C@H]1C[C@H](N)[C@H](O)[C@H](C)O1` (stereo not given in full): the inhibition at 5 µM in data set [1] turned out to be 36.8%; in data set [6], 46.4%. The inhibition at 3 µM in data set [2] came to 30.8%; in [5], 28.9%. Moreover, the results for the inhibition at 1 µM in data set [3] and in data set [9] were 11.2% and 12.1%, respectively. Besides, the Ratio in [4] was determined as 94; in data set [7], 88. The compound further yielded a Drug uptake in data set [8] of 0.33 nmol.

In the case of `COc1cccc2c1C(=O)c1c(O)c3c(c(O)c1C2=O)C[C@@](O)(C(C)=O)C[C@@H]3O[C@H]1C[C@H](N)[C@H](O)[C@H](C)O1` [DAUNORUBICIN], the inhibition at 5 µM in data set [1] came out at 83%; in data set [6] it was 74.8%. The inhibition at 3 µM in data set [2] amounted to 68.8%; in [5], 69.8%. Moreover, the inhibition at 1 µM in data set [3] worked out at 47.6%; in data set [9], 37%. Besides, the Ratio is on record as 119 in [4] and 155 in data set [7]. The same compound gave a Drug uptake in [8] of 0.31 nmol.

As to `COc1cccc2c1C(=O)c1c(O)c3c(c(O)c1C2=O)C[C@@](O)(C(=O)CO)C[C@@H]3O[C@H]1C[C@H](N)[C@H](O)[C@H](C)O1` [DOXORUBICIN], the results for the inhibition at 5 µM in data set [1] and in [6] were 52.2% and 56.9%, respectively. In addition, the inhibition at 3 µM worked out at 34.5% in data set [2] and 50.8% in [5]. The values for the inhibition at 1 µM in data set [3] and in [9] were 22.5% and 28.9%, respectively. The Ratio turned out to be 152 in data set [4] and 121 in data set [7]. The same compound registered a Drug uptake in data set [8] of 0.19 nmol.

`COc1cccc2c1C(=O)C1=C(C2=O)C(O)C2=C(C1O)[C@@H](C[C@@H]1C[C@H](N)[C@@H](O)[C@H](C)O1)C[C@@](O)(/C(C)=N/NC(=O)c1ccccc1)C2` (stereo not given in full) [RUBIDAZONE]: the results for the inhibition at 5 µM in data set [1] and in data set [6] were 41% and 58.2%, respectively. Further, the values for the inhibition at 3 µM in data set [2] and in data set [5] were 27.2% and 36.8%, respectively. Also, the values for the inhibition at 1 µM in [3] and in [9] were 11.6% and 12.7%, respectively. Also, the Ratio was 65 in [4] and 60 in [7]. For the same compound, the Drug uptake in [8] is given as 0.2 nmol.
